How the values were obtained:
[1] = Hygroscopicity, visual comparison at 76% relative humidity and ambient temperature; format: physicochemical; details: 76% relative humidity, ambient temperature, visual observation
From the text: The crystalline monohydrate of this invention is less hygroscopic than amorphous ABU-MDP. This is readily observed by visually comparing samples of each in separate containers at 76% relative humidity and ambient temperature.

[2] = Thermogravimetric analysis (TGA) after vacuum drying and exposure to air; format: physicochemical; details: dried under house vacuum 12 hours, exposed to air about 3 hours; 1.5% initial weight loss attributed to surface water
Method: The mole ratio of water to ABU-MDP in the crystalline monohydrate of formula (1) was determined by thermogravimetric analysis (TGA). A small amount of the monohydrate prepared in accordance with Example II was dried under "house" vacuum for 12 hours and then exposed to air for about 3 hours. […] This analysis was conducted with a Perkin Elmer TGS-2 thermogravimetric balance. The heating rate was 2.5° C. per minute from 40° C. to 160° C. A dry nitrogen purge was maintained throughout each run.

Row | Hygroscopicity indicated by TGA [2] | Substance | Hygroscopicity: physical state on exposure to humidity [1]
1 |  | N-acetylmuramyl-L-α-aminobutyryl-D-isoglutamine [Amorphous ABU-MDP, reference compound] | turns into a syrupy solution within about an hour
2 | slightly hygroscopic | acetylmuramyl-L-α-aminobutyryl-D-isoglutamine monohydrate [Crystalline monohydrate] | remains a solid
